Data set [1] relates to candida krusei. Nature of the data set: microbe, parasite or virus in culture. The data set is classed as cell-based. The text has this: • (1) Test strains: monilia albicans (candida albicans), candida glabrata, candida krusei, candida tropicalis, aspergillus fumigatus and flavous. (2) Quality control strains: candida krusei JLC30366 (ATCC6258). Antimicrobial peptides PL-13 (SEQ ID NO: 1) under test are supplied by Jiangsu ProteLight Pharmaceutical & Biotechnology Co., LTD. […] (1) The bacterial strains which preserved on PDA slant are respectively inoculated onto PDA plate and slant medium. Activation of bacterial strains is conducted at a humidity level of 60% and 25° C. (for aspergillus) or 37° C. (for candida). (2) 0.9% stroke-physiological saline solution comprising 0.5% Tween-80 is used to prepare bacterial suspension for experiment. Hemocytometer is utilized to adjust concentration of the bacterial suspension to 1-3×10^6 CFU/ml (0.5 McFarland units) to make stock solution in reserve at -20° C. During the sensitivity test, the RPMI-1640 liquid medium is diluted 1000 times to 1-3×10^3 CFU/ml. (3) The RPMI-1640 liquid is utilized as diluent to 10-fold dilute stock solution of peptides. […] The eleventh orifice is used as living control orifice, while the twelfth one as blank control. (4) The RPMI-1640 liquid is utilized as diluent to 10-fold dilute stock solution of FCZ and ICZ. […] Ditto for other operations.

In data set [2] the test system is aspergillus flavous. Briefly: microbe, parasite or virus in culture. The data set is classed as cell-based. The protocol: (§1) • (1) Test strains: monilia albicans (candida albicans), candida glabrata, candida krusei, candida tropicalis, aspergillus fumigatus and flavous. Antimicrobial peptides PL-13 (SEQ ID NO: 1) under test are supplied by Jiangsu ProteLight Pharmaceutical & Biotechnology Co., LTD. […] Activation of bacterial strains is conducted at a humidity level of 60% and 25° C. (for aspergillus) or 37° C. (for candida). (2) 0.9% stroke-physiological saline solution comprising 0.5% Tween-80 is used to prepare bacterial suspension for experiment. Hemocytometer is utilized to adjust concentration of the bacterial suspension to 1-3×10^6 CFU/ml (0.5 McFarland units) to make stock solution in reserve at -20° C. During the sensitivity test, the RPMI-1640 liquid medium is diluted 1000 times to 1-3×10^3 CFU/ml. (3) The RPMI-1640 liquid is utilized as diluent to 10-fold dilute stock solution of peptides. […] The eleventh orifice is used as living control orifice, while the twelfth one as blank control. (4) The RPMI-1640 liquid is utilized as diluent to 10-fold dilute stock solution of FCZ and ICZ. […] Ditto for other operations.

Data set [3] has as its system aspergillus fumigatus. Nature of the data set: microbe, parasite or virus in culture. The data set is classed as cell-based. The protocol:
as §1

Data set [4] concerns Acinetobacter calcoaceticus. Nature of the data set: microbe, parasite or virus in culture. The data set is classed as cell-based. The protocol: (§2) The experimental strains are 37 standard strains preserved in lab and clinical isolated bacteria, including drug-resistant bacteria and quality-control bacteria selecting Staphylococcus aureus ATCC29213, Enterococcus faecalis ATCC29212, Escherichia coli ATCC25922, Pseudomonas aeruginosa ATCC27853 and klebsiella pneumoniae ATCC700603.
(§3) (1) Sensitivity test is conducted with two-fold agar dilution method and Denlay multipoint inoculator. Test bacteria are cultured with nutrient broth and brain heart infusion.
(§4) (2) The drug is double diluted into different concentration with MH broth after dissolved and then placed in the plate respectively.
(§5) (3) After dissolved, MH agar culture medium are injected into the plate with drug quantitatively and mixed to make the final concentration of drug are 0.03, 0.06, 0.125, . . . , 128 μg/ml respectively.
(§6) (4) After solidification of the culture medium in the plate, test bacteria (10^4CFU/point) are inoculated by multipoint inoculator and cultured for 18 hours at constant 35° C. Then observe the results.

The subject of data set [5] is Enterobacter aerogenes. Briefly: microbe, parasite or virus in culture. The data set is classed as cell-based. The protocol: as §2, §3, §4, §5, §6
Data set [6] has as its system Enterobacter cloacae. Briefly: microbe, parasite or virus in culture. The data set is classed as cell-based. As for the experimental part: as §2, §3, §4, §5, §6
Data set [7] concerns Escherichia coli. Briefly: microbe, parasite or virus in culture. The data set is classed as cell-based. The conditions noted are these: 08-5 (ESBLs) Extended Spectyumβ-lactamase. As for the experimental part:
as §2, §3, §4, §5, §6

Data set [8] has as its system Feilaoti citrobacter. Briefly: microbe, parasite or virus in culture. In kind it is cell-based. As for the experimental part: as §2, §3, §4, §5, §6
Data set [9] has as its system Proteus vulgaris. Briefly: microbe, parasite or virus in culture. The data set is classed as cell-based. The protocol:
as §2, §3, §4, §5, §6

For data set [10], the system named is Salmonella typhimurium. Briefly: microbe, parasite or virus in culture. The conditions noted are these: murium. The data set is classed as cell-based. As for the experimental part:
as §2, §3, §4, §5, §6

The subject of data set [11] is Serratia marcescens. Nature of the data set: microbe, parasite or virus in culture. In kind it is cell-based. As for the experimental part: as §2, §3, §4, §5, §6
In data set [12] the test system is Shigella flexneri. Nature of the data set: microbe, parasite or virus in culture. In kind it is cell-based. The protocol:
as §2, §3, §4, §5, §6

The subject of data set [13] is Shigella sonnei. Briefly: microbe, parasite or virus in culture. In kind it is cell-based. The conditions noted are these: Shigella sonnei strains 51592. As for the experimental part: as §2, §3, §4, §5, §6
In data set [14] the test system is Shigella. Briefly: microbe, parasite or virus in culture. The data set is classed as cell-based. As for the experimental part: as §2, §3, §4, §5, §6
Data set [15] deals with Staphylococcus aureus. Briefly: microbe, parasite or virus in culture. In kind it is cell-based. The protocol: as §2, §3, §4, §5, §6
For data set [16], the system named is Staphylococcus epidermidis. Briefly: microbe, parasite or virus in culture. The data set is classed as cell-based. As for the experimental part:
as §2, §3, §4, §5, §6

For data set [17], the system named is Typhoid bacillus H901. Nature of the data set: microbe, parasite or virus in culture. The data set is classed as cell-based. As for the experimental part: as §2, §3, §4, §5, §6
The subject of data set [18] is red cell suspension from healthy volunteers. Briefly: Hemolytic activity test. The data set is classed as cell-based, human. The conditions noted are these: for Hemolytic activity, absorbancy (OD value) at 570 nm: 4 hours at 37° C., OD higher than 0.1 is hemolytic, n = 3. As for the experimental part: (1) Samples are serial diluted with sterile PBS to 1000, 500, 250, 125, 64, 32, 16, 8, 4 μg/ml in turn and spread in 96-well plates, 100 μl per orifice.
(2) We use distilled water as positive control, sterile PBS as negative control and blank orifice with 200 μl PBS solution added. Each concentration above is made in triplicate.
(3) We take 3 ml whole blood from healthy volunteers and washed it with sterile PBS three times to prepare fresh 2% concentration red cell suspension. Then we added 100 μl red cell suspension into each orifice and made them cultured for 4 hours at 37° C. in the incubator. After centrifuged by plate-swashing centrifuge, the supernatant liquid is collected and measured absorbancy (OD value) at a wavelength of 570 nm. Then we compared the hemolytic efficiency of these concentrations.
(4) According to the documents standard, OD value which is higher than 0.1 is hemolytic concentration.

The target in data set [19] is PL-51 (SEQ ID NO: 30). Briefly: RP-HPLC temperature profiling 5-80 C, normalised to random coil peptide C; self-association of the peptide with itself.
Data set [20] deals with PL-18 (SEQ ID NO: 1). The data set is described as above.
Data set [21] deals with PL-40 (SEQ ID NO: 18). The description is as above.
The target of data set [22] is PL-34 (SEQ ID NO: 6). The data set is described as above.
The target of data set [23] is PL-43 (SEQ ID NO: 24). The data set is described as above.

Data on six molecules can be found in patent US9273095B2, “Antibiotic peptide and preparation method therefor and application therefor” (priority 2011, dated 2016).

Like-named read-outs stand apart in the source and are kept apart here. Non-standard residues stand in square brackets, D forms with d. No end group written: not given here.

Turning to Ac-FKKLKKLFSKLLNLK-NH2 [PL-26], the Minimal inhibitory concentration in data set [1] is 8 µg/mL; in [2] it was over 64 µg/mL; in data set [3], 32 µg/mL. The MIC in [4] is recorded as 6.7 µM; in [5] it was 1.3 µM; in data set [6] it was 1.7 µM; in [7] it was 1.3 µM; in [8], 2.7 µM; in data set [9] it was 6.7 µM. In addition, the MIC in data set [10] is 5.3 µM; in data set [11], 0.02 µM; in data set [12], 1.3 µM; in data set [13], 1.3 µM; in data set [14], 0.3 µM; in data set [15] (08-49(MSSA) Meticillin susceptible staphylococcus aureus), 1.3 µM. Also, the MIC in data set [15] (08-52(MRSA) Methicillin-resistant staphylococcus aureus) is on record as 1.3 µM; in data set [15] (Staphylococcus aureus ATCC25923) it was 1.3 µM; in [15] (Staphylococcus aureus ATCC29213), 1.3 µM; in [15] (strain 15 (listed under Staphylococcus aureus)), 1.3 µM; in data set [16], 0.7 µM; in data set [16] (08-17 (MSSE) Meticillin susceptible staphylococcus epidermidis) it was 2.7 µM. Besides, the MIC in [16] (08-18 (MRSE) Methicillin-resistant staphylococcus epidermidis) and in [17] was 2.7 µM in each case. Besides, the “Hemolytic activity, absorbancy (OD value) at 570 nm” value in data set [18] (peptide 7.8125 μg/ml) amounted to 0.020; in data set [18] (peptide 15.625 μg/ml) it was 0.047; in [18] (peptide 31.25 μg/ml) it was 0.057; in data set [18] (peptide 62.5 μg/ml) it was 0.068; in data set [18] (peptide 125 μg/ml), 0.075; in data set [18] (peptide 250 μg/ml), 0.089. In addition, the “Hemolytic activity, absorbancy (OD value) at 570 nm” value amounted to 0.121 in [18] (peptide 500 μg/ml) and 0.327 in [18] (peptide 1000 μg/ml). Further, the “hemolytic toxicity (in words)” value in data set [18] (summary of Table 9) is reported as “little hemolytic toxicity”.

The molecule [dL][dF][dK][dK][dL][dK][dK][dL][dF][dS][dK][dL][dW][dN][dW][dK] [PL-51 (SEQ ID NO: 30)] came in with a PA (self-association parameter) in data set [19] of 1.63 min.

B1: PL-18 (SEQ ID NO: 1) (peptide)
peptide: Ac-[dF][dK][dK][dL][dK][dK][dL][dF][dS][dK][dL][dW][dN][dW][dK]-NH2
SMILES: CC(=O)N[C@H](Cc1ccccc1)C(=O)N[C@H](CCCCN)C(=O)N[C@H](CCCCN)C(=O)N[C@H](CC(C)C)C(=O)N[C@H](CCCCN)C(=O)N[C@H](CCCCN)C(=O)N[C@H](CC(C)C)C(=O)N[C@H](Cc1ccccc1)C(=O)N[C@H](CO)C(=O)N[C@H](CCCCN)C(=O)N[C@H](CC(C)C)C(=O)N[C@H](Cc1c[nH]c2ccccc12)C(=O)N[C@H](CC(N)=O)C(=O)N[C@H](Cc1c[nH]c2ccccc12)C(=O)N[C@H](CCCCN)C(N)=O
Turning to B1, the PA (self-association parameter) in data set [20] was determined as 0.56 min.

For the molecule [dK][dL][dK][dK][dL][dF][dS][dK][dL][dW][dN][dW][dK] [PL-40 (SEQ ID NO: 18)], the PA (self-association parameter) in data set [21] came out at 0.55 min.

[dF][dK][dK][dL][dK][dK][dK][dF][dS][dK][dL][dW][dN][dW][dK] [PL-34 (SEQ ID NO: 6)] yielded a PA (self-association parameter) in data set [22] of 0.81 min.

Take [dF][dK][dK][dF][dK][dK][dL][dL][dS][dK][dL][dW][dN][dW][dK] [PL-43 (SEQ ID NO: 24)]: in data set [23], the PA (self-association parameter) was determined as 1.65 min.
